Measured values taken from article PMC5563081, “Modulating Protein-Protein Interactions of the Mitotic Polo-like Kinases to Target Mutant KRAS” (Cell Chemical Biology, 2017).
Where two headings read alike, the source gives them in different places.

Legend:
HCT116 wt = test: Viability of drug-sensitive parental HCT116 cells; type: cell-based; conditions: Homo sapiens, HCT-116, 72 h
Procedure: (§1) Viability is represented as percentage survival normalised to DMSO control. […] PCR reactions were carried out using Amplitaq Gold polymerase (Applied Biosystems N8080241) with a 25-cycle programme. […] Prepared samples were submitted for next generation sequencing using MiSeq Nano run with Nextera XT library preparation. Sequencing and subsequent bioinformatics were performed by Cambridge Genomic Services (University Of Cambridge).

HCT116 KRAS G13D cells = test: Development of drug resistance under continuous treatment; type: cell-based, human; conditions: continuous treatment at 5x GI50
Procedure: HCT116 wild-type cells (Horizon Discovery Ltd.) cultured in McCoy's 5A (Life Technologies #26600) medium supplemented with 10% Foetal Calf Serum (Life Technologies #10270) were treated on three occasions with titrations of the PLK1 ATP-competitive inhibitor BI 2536 (Selleckchem #S1109) or Poloppin in order to determine the 2.5x GI50, 3x GI50 and 5x GI50 values for each compound required to initiate the development of resistance. Cells were subsequently treated with 2.5x GI50, 3x GI50 and 5x GI50 concentrations of either compound, changing media and compound every three to four days until resistant colonies emerged or no viable cells remained. Single cell clones were isolated from cells resistant to 5x GI50 BI 2536. Equivalent experiments using 3x GI50 or 2.5x GI50 doses of Poloppin or BI2536 yielded identical results (data not shown). BI 2536-resistant clones (HCT116 BI 2536-Res. Clones) were treated with BI2536 or Poloppin, alongside drug-sensitive parental HCT116 cells (HCT116 wt), and viability was assessed after 72 h. Viability is represented as percentage survival normalised to DMSO control. […]

[1] = test system: HCT116 BI 2536-Res. Clones; test: Viability of BI 2536-resistant HCT116 clones; type: cell-based, human; conditions: Homo sapiens, HCT-116; BI2536-Res. (Mean), 72 h; read-out: GI50
Procedure: as §1

Panc-1 = test: Cell viability (SRB), Panc-1; type: cell-based, human; conditions: Panc-1, c-MET inhibitor alone, SRB 72 h, Figure S5C, read-out: EC50, % survival
Procedure: SW48 Parental, SW48 G12D, Panc-1, HPAF-II, Panc 02.03 and Panc 05.04 cell lines were seeded overnight at 5000 cells per well in a 96 well plate in recommended media (ATCC). Compounds were added the following day and viability was measured at 72h using the sulforhodamine B (SRB) colorimetric assay as follows. Cells were fixed by replacing media with 1% v/v Trichloroacetic Acid (TCA) (Sigma-Aldrich) at 4°C and incubated for 1h also at 4°C. Wells were washed thoroughly with copious amounts of deionised water before staining with Sulforhodamine B (SRB) (Sigma-Aldrich) solution (0.057% w/v in 1% v/v Acetic Acid (VWR)) for 30 min. Stain was aspirated and wells washed with several changes of 1% v/v Acetic Acid until unbound stain was removed, before air-drying. Bound stain was solubilized with 100μl / well 10mM Tris (pH 8.0) (Trizma Base (121.1) Sigma-Aldrich) with agitation for 10 min. Fluorescence intensity was recorded at Ex540nm / Em590nm using a BMG Pherastar Plus plate reader ([Vichai and Kirtikara, 2006]).
Pancreatic organoids were extracted and cultured as detailed above ([Boj et al., 2015]). In brief, pancreatic organoids were seeded at 600 cells per well in a 96 well plate and allowed to grow for 7 days with media replenishment on the 3rd day. Full-grown organoids were then treated with compounds for 72h and viability determined using CellTitre Glo 3D assay (Promega). For viability assays with c-MET siRNA, cells were reverse transfected in a 6 cm dish using Dharmafect 1 (GE Dharmacon) per manufacturer’s instructions. On the following day, cells were trypsinised and plated onto 96 well plates or 6 well plates. The 96 well plates were treated with a dose range of compounds or DMSO, and viability was determined via SRB colorimetric assay. Cells in the 6 well plates were collected at the end of experiment to corroborate knockdown of c-MET by Western blotting.
Cells were reverse-transfected with 50nM (SW48 parental, SW48 KRAS G12D and Panc-1) or 25nM (HeLa Flp-In T-REx parental cells) siRNA using Dharmafect (GE Dharmacon) as manufacturer’s recommendations. Where transfected cells were subsequently treated with compounds, the cells were allowed to settle overnight and then treated with compound at the indicated concentration the following day. Viability was assessed after 72 hrs, with the SRB colorimetric assay. Knockdown efficiencies were determined by Western blot or RT-qPCR. Oligos against the following target sequences were used. c-MET (Qiagen): […], […], […]. PLK1 (Qiagen): […]. PLK2 (SMARTpool; Dharmacon): ACACAGAAGGAGAACGAUA, CAUCAAUGAGGAUAGGAUA, CUGCCUAGUGUUACUGAUA, ACAAAGUCUACGCCGCAAA. PLK3 (SMARTpool; Dharmacon): GCGAGAAGAUCCUAAAUGA, GCAAGUGGGUUGACUACUC, GCACAUCCGUUGGCCAUCA, GACCUCAAGUUGGGAAAUU. PLK4 (Qiagen): […].

[2] = molecular target: T1, NanoLuc-PLK1 fusion protein (Homo sapiens, UniProt P53350); test: NanoLuc thermal shift assay; type: cell-based; conditions: compound at 100 μM
T1 construct: NanoLuc fused to the N-termini of full-length human PLK1, PLK2, PLK3, PLK4 or p38α MAPK; expressed in transfected cells; host or cells: HeLa, transient, digitonin-permeabilised
Procedure: (§2) HeLa cells were transfected with plasmids encoding NanoLuc fused to the N-termini of full-length human PLK1, PLK2, PLK3, PLK4 or p38α MAPK. Twenty-four h after transfection, the thermal stability of the fusion proteins was tested using a modified version of the assay protocol supplied by Promega. Briefly, cells were harvested by tyrpsinisation and centrifugation, counted, and resuspended to 200,000 cells/ml in 3mls of serum-free OptiMEM media. Cells were then permeabilised using with 50ug/ml digitonin in DMSO for 5 min and incubated with test compounds at 100uM, plus protease inhibitor cocktail (Promega G6521), in a final concentration of 5% DMSO for 1 h at 37°C. After incubation, 100 μl/well of cells were aliquoted into a 96-well, thin-walled PCR plate and then heated for 3 minutes using a pre-warmed MJ Tetrad DNA Engine set to run a temperature gradient of 42 to 66°C. The plates were then cooled to room temperature for 10 min, and then 80μl of each sample was transferred to a white-walled 96-well Nunc plate before NanoBRET™ NanoGlo Substrate diluted in Opti-MEM was added. NanoLuc enzyme activity was read out within 10 min using a BMG Clariostar plate reader.
(§3) Nanoluciferase enzyme activity of PLK1- or PLK4-Nanoluc fusion protein was analysed using GraphPad Prism. Data were normalised as follows: (treatment A RLU value at X°C temp/treatment A RLU value at 42°C temp) x 100. Using the Boltzmann sigmoidal equation, a curve was then fitted to the normalised data. From this non-linear fit, a V50 value was generated, which in this context represents the aggregation onset temperature (Tagg), at which 50% of the PLK1- or PLK4-Nanoluc fusion protein has aggregated.

[3] = molecular target: T2, NanoLuc-PLK4 fusion protein (Homo sapiens, UniProt O00444); test: NanoLuc thermal shift assay; type: cell-based; conditions: compound at 100 μM
T2 construct: NanoLuc fused to the N-termini of full-length human PLK1, PLK2, PLK3, PLK4 or p38α MAPK; expressed in transfected cells; host or cells: HeLa, transient, digitonin-permeabilised
T2 sequence (O00444 1-970): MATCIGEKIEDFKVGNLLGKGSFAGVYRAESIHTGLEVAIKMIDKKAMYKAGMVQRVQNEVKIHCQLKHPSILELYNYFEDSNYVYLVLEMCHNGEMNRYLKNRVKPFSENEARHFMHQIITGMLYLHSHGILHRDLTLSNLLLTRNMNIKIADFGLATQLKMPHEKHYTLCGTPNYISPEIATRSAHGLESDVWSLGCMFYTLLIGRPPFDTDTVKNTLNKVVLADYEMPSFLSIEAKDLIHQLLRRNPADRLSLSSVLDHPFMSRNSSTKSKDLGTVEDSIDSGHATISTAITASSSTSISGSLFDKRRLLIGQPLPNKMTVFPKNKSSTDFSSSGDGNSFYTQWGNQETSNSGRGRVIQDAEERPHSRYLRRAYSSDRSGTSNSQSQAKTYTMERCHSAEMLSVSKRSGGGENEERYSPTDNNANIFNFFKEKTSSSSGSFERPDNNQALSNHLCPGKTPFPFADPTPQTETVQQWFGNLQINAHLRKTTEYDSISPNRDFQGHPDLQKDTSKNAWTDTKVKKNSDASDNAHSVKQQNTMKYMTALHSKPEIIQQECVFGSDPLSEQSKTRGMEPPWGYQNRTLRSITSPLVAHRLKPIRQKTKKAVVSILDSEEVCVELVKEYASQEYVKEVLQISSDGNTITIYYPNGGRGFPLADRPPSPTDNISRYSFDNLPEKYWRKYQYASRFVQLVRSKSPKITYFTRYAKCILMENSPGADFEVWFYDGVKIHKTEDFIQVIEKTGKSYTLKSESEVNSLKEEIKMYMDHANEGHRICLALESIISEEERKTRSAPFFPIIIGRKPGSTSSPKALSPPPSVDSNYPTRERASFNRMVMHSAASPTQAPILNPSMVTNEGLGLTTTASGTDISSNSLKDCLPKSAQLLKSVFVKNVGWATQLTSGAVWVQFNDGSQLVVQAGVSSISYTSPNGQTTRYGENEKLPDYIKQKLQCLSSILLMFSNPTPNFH
Procedure: as §2, §3

HeLa cells = test: Mitotic index assay in HeLa cells; type: cell-based, human; conditions: for EC50: Homo sapiens, HeLa, Figure 5A, read-out: MI EC50 (cellular assay for mitotic arrest)
Procedure: Cells were plated at 10 000/well in 96-well plates and incubated overnight. The following day compound stocks in DMSO were diluted in medium then added to cells with a maximum final DMSO concentration on cells of 0.2%. […] Cells were permeabilised with 0.1% Triton X-100 then incubated with anti-phospho-histone H3 (Ser10) antibody (Abcam ab5176). The cells were washed with PBS then incubated with AlexaFluor 488 labelled goat anti-rabbit IgG (Invitrogen A11034) in the presence of 4ug/ml Hoechst 33342 (Invitrogen H3570). Cells were washed in PBS then imaged on an Arrayscan VTi HCS instrument (Thermo Fisher) using the Target Activation V4 Bioapplication. A user-defined threshold was applied to identify mitotic cells based on the intensity of phospho-histone H3 staining.

[4] = molecular target: T3, PLK1-PBD(345-603), Polo-box domain of human Polo-like kinase 1 (human, UniProt P53350 345-603); test: fluorescence polarisation; competition format: TAMRA-labelled phosphopeptide 10 nM, PBD 84 nM (2.5 ng/ul), PBS pH 7.4 plus 0.03% tween; compound and PBD incubated together at 22 C for 1 hour before the peptide was added; same procedure for PLK2 PBD with its own peptide; conditions: both partners purified
T3 construct: Polo-like kinase 1 (PLK1), human, Polo-box domain, residues 345-603; also called PLK1 PBD (aa345-603); PBDaa345-603; source: E. coli C41, purified (GST-Sepharose column, cleaved on column with PreScission protease, gel chromatography)
T3 sequence (P53350 345-603): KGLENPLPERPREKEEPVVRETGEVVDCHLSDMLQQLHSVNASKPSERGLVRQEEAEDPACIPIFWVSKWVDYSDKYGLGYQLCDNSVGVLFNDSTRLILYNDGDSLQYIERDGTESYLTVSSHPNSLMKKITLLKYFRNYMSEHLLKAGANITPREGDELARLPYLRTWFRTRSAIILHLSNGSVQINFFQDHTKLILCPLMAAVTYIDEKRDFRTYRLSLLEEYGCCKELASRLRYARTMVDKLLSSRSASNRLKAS

T1 sequence (P53350 whole entry, the tested form may be a part): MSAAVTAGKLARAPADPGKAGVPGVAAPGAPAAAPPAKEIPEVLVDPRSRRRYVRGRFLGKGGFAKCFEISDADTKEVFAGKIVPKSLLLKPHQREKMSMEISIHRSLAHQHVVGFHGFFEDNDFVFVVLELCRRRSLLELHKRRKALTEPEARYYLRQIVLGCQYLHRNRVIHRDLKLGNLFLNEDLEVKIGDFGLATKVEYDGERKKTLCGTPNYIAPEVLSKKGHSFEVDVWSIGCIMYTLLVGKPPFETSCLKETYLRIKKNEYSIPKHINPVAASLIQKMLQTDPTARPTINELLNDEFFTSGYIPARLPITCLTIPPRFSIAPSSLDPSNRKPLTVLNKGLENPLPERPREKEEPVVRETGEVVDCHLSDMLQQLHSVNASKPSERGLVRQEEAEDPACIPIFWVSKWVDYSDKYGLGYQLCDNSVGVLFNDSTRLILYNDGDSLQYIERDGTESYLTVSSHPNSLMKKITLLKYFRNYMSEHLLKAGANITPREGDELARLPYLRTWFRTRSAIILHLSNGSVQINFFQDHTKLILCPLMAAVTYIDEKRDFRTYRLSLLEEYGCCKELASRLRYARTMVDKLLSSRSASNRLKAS

Molecule: CC[C@@H]1C(=O)N(C)c2cnc(Nc3ccc(C(=O)NC4CCN(C)CC4)cc3OC)nc2N1C1CCCC1 [BI2536, reference compound]
- GI50 (HCT116 wt): 8.25 nM
- acquisition of drug resistance (HCT116 KRAS G13D cells): readily acquire resistance
- GI50 [1]: 30.9 nM

Molecule: COc1cc2c(Oc3ccc(NC(=O)C4(C(=O)Nc5ccc(F)cc5)CC4)cc3F)ccnc2cc1OCCCN1CCOCC1 [Foretinib]
- EC50 (Panc-1; Homo sapiens): 2600 ± 1040 nM

Molecule: Cc1cc(Cl)ccc1-n1c(CCC(=O)N(C)C)ccc1-c1ccc(Br)cc1 [PB114]
- thermal stability of NanoLuc-PLK1 [2]: less active
- thermal stability of NanoLuc-PLK4 [3]: less active
- EC50, mitotic index assay (HeLa cells; HeLa cells treated for 16 hr, Figure 5B): inactive

Molecule: O=C1NC(=O)C(c2cn3c4c(cccc24)CCC3)C1c1c[nH]c2ccccc12 (centres unmarked) [Tivatinib]
- EC50 (Panc-1): 1200 ± 1030 nM

Molecule: CN(C)CCNC(=O)c1cccc(-c2ccc(-c3ccc(Br)cc3)n2-c2ccccc2C(F)(F)F)c1 [compound 4]
- EC50 (HeLa cells): 580 nM

Molecule: CN(C)CCNC(=O)c1ccc(-c2ccc(-c3ccc(Br)cc3)n2-c2ccccc2C(F)(F)F)cc1 [compound 5]
- EC50 (HeLa cells): 360 nM

B1: TAMRA-labelled consensus PLK1 PBD binding phosphopeptide, 5-TAMRA-MAGPMQS(pThreonine)PLMGAKK-acid (peptide)
peptide: MAGPMQSTPLMGAKK
modifications: not fully specified; 5-TAMRA on the N-terminus; phosphothreonine (pThreonine) after MAGPMQS, residue 8 of the letters; C-terminal acid
notes: also called TAMRA-labeled substrate peptide
- binding result [4]: binds
